Patent US10947213B1 (Merck Patent GmbH, priority 2015, dated 2021)
pIC50: −log10 of the molar value. Counter-ions that a name gives are not always drawn.

Each molecule was assayed against T1, TLR7/NFKb HEK cells (Homo sapiens, UniProt Q9NYK1) (assay: HEK Cell Assay (TLR7/NFKb reporter, Steady-Glo luciferase readout)). Conditions: 30 min compound preincubation, then R*48 agonist for 5 hours, read-out: Potency.
T1 construct: expressed in transfected cells; host or cells: HEK cells (TLR7/NFKb reporter line)
T1 sequence (Q9NYK1 27-1049): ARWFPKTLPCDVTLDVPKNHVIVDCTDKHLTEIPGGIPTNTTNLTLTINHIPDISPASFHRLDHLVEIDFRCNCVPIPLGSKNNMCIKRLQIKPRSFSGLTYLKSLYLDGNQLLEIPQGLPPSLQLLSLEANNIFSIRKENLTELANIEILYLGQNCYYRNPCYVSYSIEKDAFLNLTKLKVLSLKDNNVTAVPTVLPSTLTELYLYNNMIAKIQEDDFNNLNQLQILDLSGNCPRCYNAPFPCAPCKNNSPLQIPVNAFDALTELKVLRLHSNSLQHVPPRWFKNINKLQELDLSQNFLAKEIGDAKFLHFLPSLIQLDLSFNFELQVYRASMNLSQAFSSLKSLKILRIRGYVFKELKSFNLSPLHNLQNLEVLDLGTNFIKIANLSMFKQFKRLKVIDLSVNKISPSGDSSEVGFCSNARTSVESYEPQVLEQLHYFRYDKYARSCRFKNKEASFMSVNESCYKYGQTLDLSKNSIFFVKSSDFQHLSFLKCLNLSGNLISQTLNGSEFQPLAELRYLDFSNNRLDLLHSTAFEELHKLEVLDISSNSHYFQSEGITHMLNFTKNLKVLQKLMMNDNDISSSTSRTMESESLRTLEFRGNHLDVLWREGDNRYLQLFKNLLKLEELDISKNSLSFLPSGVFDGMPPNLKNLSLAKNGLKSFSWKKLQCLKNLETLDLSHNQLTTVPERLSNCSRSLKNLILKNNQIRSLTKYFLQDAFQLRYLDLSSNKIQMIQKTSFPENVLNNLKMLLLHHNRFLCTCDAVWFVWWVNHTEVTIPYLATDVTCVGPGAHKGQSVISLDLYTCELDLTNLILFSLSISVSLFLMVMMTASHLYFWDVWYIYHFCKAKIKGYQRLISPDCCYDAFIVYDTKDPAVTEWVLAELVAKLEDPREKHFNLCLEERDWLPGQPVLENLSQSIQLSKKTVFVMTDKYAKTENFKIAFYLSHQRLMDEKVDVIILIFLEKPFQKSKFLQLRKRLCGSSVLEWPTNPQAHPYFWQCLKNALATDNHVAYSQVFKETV
Assay type: cell-based
Method in brief: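 Steady-Glo luminescence after 5 h stimulation with R*48 agonist, following 30 min compound preincubation. Assay run in HEK cells carrying a TLR7/NFKb luciferase reporter, plated at 5000 cells/well and grown 24 h at 37° C (10% CO2) before treatment.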

**Q.** With `N#Cc1ccc(N2CC(NC(=O)CC3(O)CCCCC3)CC(C(F)(F)F)C2)c2cccnc12` (racemic) [Compound 491] as the molecule, how does the pIC50 read?
**A.** > 6.00

**Q.** How did the pIC50 turn out when `C[C@H]1C[C@@H](NC(=O)CN(C)C)CN(c2ccc(C(F)F)c3ncccc23)C1` [Compound 209, N-[(3R,5S)-1-[8-(difluoromethyl)quinolin-5-yl]-5-methylpiperidin-3-yl]-2-(dimethylamino)acetamide] was run?
**A.** > 6.00

**Q.** With `CC(C)(C)CC(=O)N[C@H]1C[C@@H](C(F)(F)F)CN(c2ccc(C#N)c3ncccc23)C1` (relative stereo) [Compound 431, cis-N-[1-(8-Cyano-quinolin-5-yl)-5-trifluoromethyl-piperidin-3-yl]-3,3-dimethyl-butyramide] as the molecule, how does the pIC50 read?
**A.** > 6.00

**Q.** `CC(C(=O)N[C@@H]1C[C@H](C)CN(c2ccc(C(F)(F)F)c3ncccc23)C1)N1CC(F)(F)C1` (stereo partly drawn) [Compound 287, 2-(3,3-difluoroazetidin-1-yl)-N-[(3R,5S)-5-methyl-1-[8-(trifluoromethyl)quinolin-5-yl]piperidin-3-yl]propanamide] was tested. Which pIC50 did it give?
**A.** > 6.00

**Q.** With `C[C@H]1C[C@@H](NC(=O)CN2CCCN(C)CC2)CN(c2ccc(C(F)F)c3ncccc23)C1` [Compound 314, N-[(3R,5S)-1-[8-(difluoromethyl)quinolin-5-yl]-5-methylpiperidin-3-yl]-2-(4-methyl-1,4-diazepan-1-yl)acetamide] as the molecule, how does the pIC50 read?
**A.** > 6.00

**Q.** With `N#Cc1ccc(N2CC(NC(=O)C(N)C(F)(F)F)CC(C3CC3)C2)c2nccnc12` (single isomer, unassigned) [Compound 178] as the molecule, how does the pIC50 read?
**A.** 5.00 to 6.00

**Q.** With `C[C@H]1C[C@@H](NC(=O)CC(O)C(C)(C)C)CN(c2ccnc3nccnc23)C1` (single isomer, unassigned) [Compound 149] as the molecule, how does the pIC50 read?
**A.** < 5.00

**Q.** `C[C@H]1C[C@@H](NC(=O)CC2CC2(F)F)CN(c2ccc(C(F)F)c3ncccc23)C1` (stereo partly drawn) [Compound 310, 2-(2,2-difluorocyclopropyl)-N-[(3R,5S)-1-[8-(difluoromethyl)quinolin-5-yl]-5-methylpiperidin-3-yl]acetamide] was tested. Which pIC50 did it give?
**A.** > 6.00

**Q.** `N#Cc1ccc(N2CC(NC(=O)CC3(N)CCCCC3)CC(C(F)(F)F)C2)c2cccnc12` (single isomer, unassigned) [Compound 497] was tested. Which pIC50 did it give?
**A.** > 6.00

**Q.** With `C[C@H]1C[C@@H](NC(=O)C(N)C(F)(F)F)CN(c2ccc(C(F)F)c3ncccc23)C1` (single isomer, unassigned) [Compound 208] as the molecule, how does the pIC50 read?
**A.** > 6.00

**Q.** How did the pIC50 turn out when `CC(C)(C)NCC(=O)NCC1CCN(c2ccc(C#N)c3ncccc23)CC1` [Compound 413, 2-tert-Butylamino-N-[1-(8-cyano-quinolin-5-yl)-piperidin-4-ylmethyl]-acetamide] was run?
**A.** > 6.00

**Q.** How did the pIC50 turn out when `C[C@H]1C[C@@H](N)CN(c2ccc(O)c3ncccc23)C1` [Compound 200, 5-[(3R,5S)-3-amino-5-methylpiperidin-1-yl]quinolin-8-ol hydrochloride] was run?
**A.** > 6.00

**Q.** With `FC(F)(F)CCN[C@H]1C[C@@H](C(F)(F)F)CN(c2ccnc3nccnc23)C1` (relative stereo) [Compound 96, cis-1-[pyrido[2,3-b]pyrazin-8-yl]-5-(trifluoromethyl)-N-(3,3,3-trifluoropropyl)piperidin-3-amine hydrochloride] as the molecule, how does the pIC50 read?
**A.** < 5.00

**Q.** `Cc1ncc(N2C[C@@H](C)C[C@@H](NC(=O)CC(C)(C)O)C2)c2cccnc12` [Compound 555, 3-Hydroxy-3-methyl-N-[(3R,5S)-5-methyl-1-(8-methyl-[1,7]naphthyridin-5-yl)-piperidin-3-yl]-butyramide] was tested. Which pIC50 did it give?
**A.** 5.00 to 6.00

**Q.** With `C[C@H]1C[C@@H](NC(=O)C(N)C(F)(F)F)CN(c2ccnc3nccnc23)C1` (single isomer, unassigned) [Compound 114, hydrochloride] as the molecule, how does the pIC50 read?
**A.** < 5.00

**Q.** How did the pIC50 turn out when `C[C@H]1C[C@@H](NC(=O)CC(C)(C)C)CN(c2c(F)cc(C#N)c3nccnc23)C1` [Compound 343, N-[(3R,5S)-1-(8-cyano-6-fluoroquinoxalin-5-yl)-5-methylpiperidin-3-yl]-3,3-dimethylbutanamide] was run?
**A.** 5.00 to 6.00

**Q.** How did the pIC50 turn out when `CC(C)[C@H](N)C(=O)N[C@@H]1C[C@H](C)CN(c2ccc(C#N)c3nccnc23)C1` [Compound 103, (2S)-2-amino-N-[(3R,5S)-1-(8-cyanoquinoxalin-5-yl)-5-methylpiperidin-3-yl]-3-methylbutanamide] was run?
**A.** > 6.00

**Q.** How did the pIC50 turn out when `CCN1CCC[C@H]1C(=O)NC1CC(C(F)(F)F)CN(c2ccc(C#N)c3ncccc23)C1` (single isomer, unassigned) [Compound 438] was run?
**A.** 5.00 to 6.00

**Q.** `C[C@H]1C[C@@H](NC(=O)CC2(C)CCN(C)CC2)CN(c2ccc(C(F)(F)F)c3nccnc23)C1` [Compound 255, 2-(1,4-dimethylpiperidin-4-yl)-N-[(3R,5S)-5-methyl-1-[8-(trifluoromethyl)quinoxalin-5-yl]piperidin-3-yl]acetamide] was tested. Which pIC50 did it give?
**A.** > 6.00

**Q.** With `C[C@H]1C[C@@H](NC2CCN(C)C2=O)CN(c2ccnc3nccnc23)C1` (stereo partly drawn) [Compound 126, 1-methyl-3-[[(3R,5S)-5-methyl-1-[pyrido[2,3-b]pyrazin-8-yl]piperidin-3-yl]amino]pyrrolidin-2-one] as the molecule, how does the pIC50 read?
**A.** < 5.00

**Q.** How did the pIC50 turn out when `N#Cc1ccc(N2CC(NC(=O)CC3(N)CCOCC3)CC(C(F)(F)F)C2)c2cccnc12` (racemic) [Compound 493, 2-(4-Amino-tetrahydro-pyran-4-yl)-N-[1-(8-cyano-quinolin-5-yl)-5-trifluoromethyl-piperidin-3-yl]-acetamide hydrochloride] was run?
**A.** > 6.00

**Q.** How did the pIC50 turn out when `CC(C)[C@H](N)C(=O)N[C@@H]1C[C@H](C)CN(c2ccnc3nccnc23)C1` [Compound 105, (2S)-2-amino-3-methyl-N-[(3R,5S)-5-methyl-1-[pyrido[2,3-b]pyrazin-8-yl]piperidin-3-yl]butanamide] was run?
**A.** > 6.00

**Q.** `C[C@H]1C[C@@H](NC(=O)[C@@H](N)Cc2cccnc2)CN(c2ccnc3nccnc23)C1` [Compound 118, (2S)-2-amino-N-[(3R,5S)-5-methyl-1-[pyrido[2,3-b]pyrazin-8-yl]piperidin-3-yl]-3-(pyridin-3-yl)propanamide] was tested. Which pIC50 did it give?
**A.** 5.00 to 6.00

**Q.** `C[C@H]1C[C@@H](NCC(N)=O)CN(c2ccc(C(F)(F)F)c3ncccc23)C1` [Compound 570] was tested. Which pIC50 did it give?
**A.** > 6.00

**Q.** How did the pIC50 turn out when `CCCN1CCN(C[C@H]2CN(c3ccnc4nccnc34)C[C@@H](C)O2)CC1` [Compound 52, (2R,6S)-2-methyl-6-((4-propylpiperazin-1-yl)methyl)-4-(pyrido[2,3-b]pyrazin-8-yl)morpholine] was run?
**A.** > 6.00

**Q.** With `C[C@@H]1C[C@@H](C(=O)NCC2CCN(C)CC2)CN(c2ccc(C(F)(F)F)c3ncccc23)C1` (relative stereo) [Compound 548, trans-5-Methyl-1(8-trifluoromethyl-quinolin-5-yl)-piperidine-3-carboxylic acid (1-methyl-piperidin-4-ylmethyl)-amide] as the molecule, how does the pIC50 read?
**A.** > 6.00

**Q.** How did the pIC50 turn out when `COc1ccc(N2C[C@@H](C)C[C@@H](NC(=O)CN(C)C)C2)c2nccnc12` [Compound 203, 2-(dimethylamino)-N-[(3R,5S)-1-(8-methoxyquinoxalin-5-yl)-5-methylpiperidin-3-yl]acetamide] was run?
**A.** 5.00 to 6.00

**Q.** With `CN1CCN(CCNC(=O)C2CCN(c3ccc(C#N)c4ncccc34)CC2)CC1` [Compound 421, 1-(8-Cyano-quinolin-5-yl)-piperidine-4-carboxylic Acid [2-(4-methyl-piperazin-1-yl)-ethyl]-amide] as the molecule, how does the pIC50 read?
**A.** > 6.00

**Q.** `C[C@H]1C[C@@H](N)CN(c2ccc(C(F)(F)F)c3nccnc23)C1` [Compound 77, (3R,5S)-5-methyl-1-[8-(trifluoromethyl)quinoxalin-5-yl]piperidin-3-amine] was tested. Which pIC50 did it give?
**A.** > 6.00

**Q.** How did the pIC50 turn out when `N#Cc1ccc(N2CC(N)CC(C(F)(F)F)C2)c2cccnc12` (single isomer, unassigned) [Compound 72] was run?
**A.** > 6.00

**Q.** With `O=C(CN1CCOCC1)N[C@H]1C[C@@H](C2CC2)CN(c2ccc(C(F)(F)F)c3nccnc23)C1` (relative stereo) [Compound 335, cis-N-[5-cyclopropyl-1-[8-(trifluoromethyl)quinoxalin-5-yl]piperidin-3-yl]-2-(morpholin-4-yl)acetamide] as the molecule, how does the pIC50 read?
**A.** < 5.00

**Q.** With `CNC(=O)CCC(=O)N[C@@H]1C[C@H](C)CN(c2cnc(C)c3ncccc23)C1` [Compound 565, N-Methyl-N′-[(3R,5S)-5-methyl-1-(8-methyl-[1,7]naphthyridin-5-yl)-piperidin-3-yl]-succinamide] as the molecule, how does the pIC50 read?
**A.** 5.00 to 6.00

**Q.** How did the pIC50 turn out when `O=C(CCCN1CCCCC1)N1CCN(c2ccnc3nccnc23)CC1` [Compound 400, 4-Piperidin-1-yl-1-(4-pyrido[2,3-b]pyrazin-8-yl-piperazin-1-yl)-butan-1-one] was run?
**A.** < 5.00
